Source: ChEMBL document CHEMBL1146237, “Antineoplastic agents. 561. Total synthesis of respirantin” (2007)
In brackets after ≈: the same amount, converted by molar mass.

Experiments:
P388 = experiment: Growth inhibition of mouse P388 cells; type: functional
MCF7 = experiment: Growth inhibition of human MCF7 cells; type: functional

## CCC(C)[C@@H]1OC(=O)[C@H](C)OC(=O)[C@@H](NC(=O)c2cccc(NC=O)c2O)[C@@H](C)OC(=O)[C@H](C(C)C)OC(=O)C(C)(C)C(=O)[C@H](CC(C)C)NC1=O (some centres undefined)
P388
  GI50: 0.033 µg/mL (≈ 0.045 µM)
MCF7
  GI50: 0.62 ng/mL (≈ 0.000845 µM)

## CCC(C)[C@@H]1OC(=O)[C@H](C)OC(=O)[C@@H](NC(=O)c2cccc(N)c2O)[C@@H](C)OC(=O)[C@H](CC(C)C)OC(=O)C(C)(C)C(=O)[C@H](CC(C)C)NC1=O (some centres undefined) [KITASTATIN]
P388
  GI50: 0.045 µg/mL (≈ 0.0625 µM)

## CCC(C)[C@@H]1OC(=O)[C@H](C)OC(=O)[C@@H](NC(=O)c2cccc(NC=O)c2O)[C@@H](C)OC(=O)[C@H](CC(C)C)OC(=O)C(C)(C)C(=O)[C@H](CC(C)C)NC1=O (some centres undefined) [RESPIRANTIN]
P388
  GI50: 0.0037 µg/mL (≈ 0.00495 µM)
